Measured values from patent US6552073B1, “Compounds and methods of treating cell proliferative diseases” (Exonhit Therapeutics SA, priority 2002, dated 2003).
Entries after “also recorded” stand apart in the source; their conditions may differ.

Legend:
NIH3T3 = assay: Cytoskeleton analysis, actin staining; format: cell-based, mouse; design: key to Cell architecture modification, actin staining NIH3T3, ruffles (R) / Cell architecture modification, actin staining NIH3T3, focal complexes (FC): a decrease in cellular ruffles density was noted R−; an increase in focal complexes density was noted FC+
Protocol: (§1) Since major rearrangements of cytoskeleton are observed in tumor cells and since the small GTPases are known to regulate these events, analysis of actin cytoskeleton was performed. Subconfluent cells seeded onto coverslips were treated with different concentration of compound (1, 10, 17.5, 25 and 50 μM) or vehicle for 24 h, before being fixed in 4% formaldehyde for 15 min., permeabilized in 0.2% Triton X100 for 5 minutes and incubated in PowerBlock (Biogenex) for 10 min. Actin filaments were stained with 0.5 μg/ml fluorescein isothiocyanate (FITC)-labelled phalloidin for 1 hour. Analysis was performed using an inverted fluorescent microscope.

[1] = system: NIH3T3 cells transfected with RasV12; assay: Colony formation assay in the presence of constitutively activated Ras (RasV12); format: cell-based, mouse; design: key to Colony formation: −: no effect of the compound was observed; +: an effect of the compound was observed; details: for Ras-dependent neoR clones formation: NIH3T3, RasV12; for Colony formation: NIH3T3, neoR colonies
Protocol: c) Ras/Rac-dependant Signaling Pathway Analysis
The impact of the compounds on Ras and Rac signaling pathways was analysed with two reporter systems described by Imler (Nature 1988) and Lin (Science, 1995) respectively on one hand, and by a colony formation assay in the presence of constitutively activated Ras (RasV12) and Rac (RacV12) on the other hand. For this latter experiment, fifty percent confluent NIH3T3 cells in a 10 cm diameter petri dish were transfected with 0.5 μg pSV2-RasV12 or 0.5 μg pEXV RacV12 plasmids plus 100 ng of pSV2-neomycin plasmid using Lipofectamine-Plus reagent (Invitrogen) according to the manufacturer's instructions. Forty-eight hours later, cells were trypsinised, splitted to 1/3, and incubated in the presence of complete medium supplemented with 400 μg/ml geneticin (Invitrogen) and different doses of compound (1, 10, 17.5, 25 and 50 μM) until emerging resistant clones appear (2-3 weeks). The medium was renewed every 3 days. Colonies with a minimum of 50 cells were counted after staining with Fuschin 2%.

H460 = assay: Cytoskeleton analysis, actin staining; format: cell-based, human
Protocol: as §1

HCT116 = assay: Cytoskeleton analysis, actin staining; format: cell-based, human
Protocol: as §1

MDA-MB-231 cells = assay: Matrigel invasion assay (Boyden chamber); format: cell-based, human; details: MDA-MB-231 cells
Protocol: d) Migration and Matrigel Invasion Assay
Chemoinvasion assay was performed in Boyden chamber as described by Albini et al (Cancer Res, 1987) with some modifications. Polycarbonate membranes with 8μm pores were coated with matrigel (125 μg/cm^2) at room temperature for 48 h. Two hours before experiments, the matrix was […] with serum-free medium containing 0.1% BSA.
One day after seeding, 10^6 MDA-MB-231 cells were treated overnight with different concentrations of compounds (1, 10, 17.5, 25 and 50 μM). Cells were collected with Versene (Invitrogen), counted with trypan blue exclusion, rinsed twice in serum-free medium containing 0.1% BSA and resuspended in serum-free medium containing 0.1% BSA plus the appropriate concentration of compound. 10^5 treated cells were placed in the upper chamber. Medium containing 10% of FBS plus the appropriate concentration of compound was placed in the lower chamber as a chemoattractant. The Boyden chamber was incubated 6 hours at 37° C. before the cells were fixed and stained with Diff-Quick (Dade-Berhing). Cells on the upper part of the filters were removed using a cotton swab. Cells on the underside of the filters were visualised and counted under light microscope. The migration assay was performed the same way, using non-coated filters.

MMP-9 = assay: Gelatin zymography; format: cell-based, human; details: zymogram gel, MDA-MB-231 supernatant
Protocol: (§2) The activity of the metalloproteases MMP-2 and MMP-9 was assayed using gelatinolytic zymography according to Lambert (Surgery 1997). Briefly, MDA-MB-231 cells were incubated overnight in serum-free medium supplemented with ITS liquid supplement (Sigma) with different concentrations of compound (1, 10, 17.5, 25 and 50 μM). Supematant was collected and concentrated with Ultrafree 30 kDA (Millipore). Equal amount of proteins, as determined by Bradford measurement, were loaded onto a 10% w/v polyacrylamide gel containing 1% gelatin and 0.1% SDS (Novex). After electrophoresis, gels were washed in Novex Zymogram Renaturing buffer for 30 min at room temperature and incubated overnight at 37° C. in Novex Zymogram developing buffer. Gels were stained in Coomassie Brilliant Blue G-250, and the gelatinolytic activity was visualized as a clear band against the blue background of the stained gelatin.

MMP-2 = assay: Gelatin zymography; format: cell-based, human; details: zymogram gel, MDA-MB-231 supernatant
Protocol: as §2

MDA231 = assay: Cytoskeleton analysis, actin staining; format: cell-based, human
Protocol: as §1

Row | Structure (SMILES) | Cell architecture modification, actin staining NIH3T3, focal complexes (FC) (NIH3T3) | Cell architecture modification, actin staining NIH3T3, ruffles (R) (NIH3T3) | Ras-dependent neoR clones formation [1] | Colony formation [1] | Cell architecture modification, actin staining H460, general observation (H460) | Cell architecture modification, actin staining HCT116, general observation (HCT116) | concentration at which an increase in invasive properties was noted (MDA-MB-231 cells) | concentration of dose-dependant inhibition of MMP-9 (MMP-9) | concentration of dose-dependant inhibition of MMP-2 (MMP-2) | Cell architecture modification, actin staining MDA231, general observation (MDA231) | melting point
1 | CCCc1ccccc1OCCCCCOc1coc(CO)cc1=O [EH18900, 5-[5-(2-Propylphenyloxy)pentyloxy]-2-(hydroxymethyl)-4H-pyran-4-one] | FC+ | R− | inhibited | + | cell spreading | cell spreading | 50 µM |  |  |  | 
2 | CCCc1c(OCCCCCOc2coc(CO)cc2=O)ccc(Cl)c1Cl [EH22900, 5-[5-(3,4-Dichloro-2-propylphenyloxy)pentyloxy]-2-(hydroxymethyl)-4H-pyran-4-one] | FC+ | R− | inhibited | + |  |  |  | 5 µM | 5 µM | increased MDA-MB-231 spreading; also recorded: cell spreading | 85 to 86 °C
3 | C/C=C/c1oc(CO)cc(=O)c1OCCCCCOc1ccc(Cl)c(Cl)c1CCC [EH31101, (E)-3-[5-(3,4-Dichloro-2-propylphenyoxy)pentyloxy]-6-(hydroxymethyl)-2-(propen-1-yl)-4H-pyran-4-one] | FC+ | R− |  | − |  |  | 10 µM | 0.1 µM | 0.1 µM |  | 75 to 76 °C
